Values quoted from earlier work as cited in patent US11207270B2, “Controlled release dosage forms for high dose, water soluble and hygroscopic drug substances” (priority 2010, dated 2021).

Columns and labels:
[1] = system: non-narcoleptic patients with fibromyalgia
[2] = system: patients suffering from disorders of disturbed sleep, including narcolepsy; settings: human, in vivo
[3] = system: patients with hyperkinetic movement disorders including ethanol responsive myoclonus and essential tremor; settings: 5 patients
[4] = given orally, in man

| Structure (SMILES) | estimates of overall wellness ([1]; before and after treatment) | subjective assessments of levels of pain and fatigue ([1]; over all 4 weeks of treatment compared to baseline) | Stage 3-4 (slow wave) sleep [2] | nocturnal awakenings [2] | total nocturnal sleep time [2] | plasma levels (immediate release formulation, dose between about 2.25 g and 4.5 g, within 4 hours of ingestion) | Cmax/Cmin ratio (two separate immediate release doses, over a six hour period) | blinded ratings of ethanol responsive myoclonus and tremor [3] | tolerability [3] | plasma half-life [4] |
| --- | --- | --- | --- | --- | --- | --- | --- | --- | --- | --- |
| O=C(O)CCCO [GHB, gamma-hydroxy butyrate] | significant improvement | significant improvements | increase | decrease | increase | below 10 ug/mL | greater than 4 | – | – | – |
| O=C([O-])CCCO.[Na+] [sodium oxybate] | – | – | – | – | – | – | – | dose-dependent improvements | tolerated at doses that provided clinical benefit | about 45 minutes |
